Test results published in patent publication US20250051277A1, “DELIVERY OF THERAPEUTIC ALKALOID COMPOUNDS” (Sensorium Therapeutics, Inc., priority 2021, published 2025).
Read-outs that look alike come from different tables or passages of the source.

Columns and labels:
[1] = type: physicochemical; conditions: SGF with pepsin, pH 1.5, 37° C., 0.5 mM
[2] = Hydrolysis Assay of Example A1 (conversion by LCMS); type: physicochemical; conditions: for Conversion (%) / Notes (hydrolysis): 0.5 mM, 0.01M HCl
Protocol: The hydrolysis kinetics was under a certain temperature and measured by LCMS at a certain time interval. The corresponding LCMS chromatograms were recorded and the conversions were calculated. The hydrolysis conditions and the data were summarized in below table. LCMS spectra were obtained using Agilent 1200/G1956A or SHIMADZU LCMS-2020. Standard LCMS conditions were as follows (running time 1.55 minutes): • Acidic condition: Mobile Phase A: 0.0375% TFA in water (v/v). Mobile Phase B: 0.01875% TFA in acetonitrile (v/v); Column: Kinetex EVO C18 30*2.1 mm, 5 μm. • Basic condition: Mobile Phase A: 0.025% NH3·H2O in water (v/v). Mobile Phase B: Acetonitrile; Column: Kinetex EVO C18 2.1×30 mm, 5 μm. • Conversion (%)=peak area 1/(peak area 1+peak area 2)*100%, peak area 1 is the integration of hydrolyzed product, peak area 2 is the integration of starting material.

[3] = Plasma Stability Assay of Example A3, mouse plasma; conditions: 5 μM, 37° C., % of prodrug compound remaining
[4] = type: physicochemical; conditions: DI water, 25° C., 0.5 mM
[5] = 5 μM
[6] = Plasma Stability Assay of Example A3, human plasma; conditions: 5 μM, 37° C., % of prodrug compound remaining
[7] = 0 min, 5 μM

COc1ccc([C@@]23CCC(=NO)C[C@@H]2N(C)CC3)cc1OC (mixture of isomers) [Compound 037]
Condition 1 Conversion (%) ([1]; time 1 min): 0% | Condition 1 Conversion (%) ([1]; time 5 min): 0% | Condition 1 Conversion (%) ([1]; time 30 min): 82.3% | Condition 1 Conversion (%) ([1]; time 1 h): 89% | Condition 1 Conversion (%) ([1]; time 4 h): 89.2% | Condition 1 Conversion (%) ([1]; time 24 h): 89.5% | conversion to mesembrine in the Hydrolysis Assay ([2]; acidic pH 2.0, temperatures of 25 or 37° C.): converted to mesembrine | Conversion (%) ([2]; pH = 2.0, 37° C., 10 min): 59% | Conversion (%) ([2]; pH = 2.0, 37° C., 60 min): 84% | Conversion (%) ([2]; pH = 2.0, 37° C., 90 min): 87%

COc1ccc([C@]23CCN(C)[C@H]2CC2(CC3)OCCO2)cc1OC (racemic) [Compound 013, 3′a-(3,4-dimethoxyphenyl)-1′-methyl-spiro[1,3-dioxolane-2,6′-2,3,4,5,7,7a-hexahydroindole]]
conversion to mesembrine in the Hydrolysis Assay ([2]; acidic pH 2.0, 5° C. as printed): not at 5 °C | conversion to mesembrine in the Hydrolysis Assay ([2]; acidic pH 2.0, temperatures of 37 and 50° C.): converted to mesembrine | Conversion (%) ([2]; pH = 2.0, 25° C., 0-24 h): 0% | Notes (hydrolysis) ([2]; pH = 2.0, 25° C., 0-24 h): Stable | Conversion (%) ([2]; pH = 2.0, 37° C., 16 h): 17% | Conversion (%) ([2]; pH = 2.0, 37° C., 24 h): 22% | Conversion (%) ([2]; pH = 2.0, 37° C., 42 h): 35% | Conversion (%) ([2]; pH = 2.0, 37° C., 56 h): 50% | Conversion (%) ([2]; pH = 2.0, 37° C., 7 d): 77% | Conversion (%) ([2]; pH = 2.0, 50° C., 10 min): 1% | Conversion (%) ([2]; pH = 2.0, 50° C., 40 min): 2% | Conversion (%) ([2]; pH = 2.0, 50° C., 120 min): 19% | Conversion (%) ([2]; pH = 2.0, 50° C., 22 h): 90%

COc1ccc([C@]23CCN(C)[C@H]2CC2(CC3)SCCS2)cc1OC (racemic) [Compound 014, (7′aS)-3′a-(3,4-dimethoxyphenyl)-1′-methyl-spiro[1,3-dithiolane-2,6′-2,3,4,5,7,7a-hexahydroindole]]
Conversion (%) ([2]; pH = 2.0, 25° C., 0-24 h): 0% | Notes (hydrolysis) ([2]; pH = 2.0, 25° C., 0-24 h): Stable

COc1ccc([C@@]23CC/C(=N\NC(=O)c4cccnc4)C[C@@H]2N(C)CC3)cc1OC [Compound 036, N-[[(3aS,7aS)-3a-(3,4-dimethoxyphenyl)-1-methyl-2,3,4,5,7,7a-hexahydroindol-6-ylidene]amino]pyridine-3-carboxamide]
Condition 1 Conversion (%) ([1]; time 1 min): 100% | Condition 1 Conversion (%) ([1]; time 5 min): 100% | Condition 1 Conversion (%) ([1]; time 30 min): 100% | Condition 1 Conversion (%) ([1]; time 1 h): 100% | Condition 1 Conversion (%) ([1]; time 4 h): 100% | Condition 1 Conversion (%) ([1]; time 24 h): 100% | Notes (hydrolysis) ([2]; pH = 2.0, 37° C., 0 to 1 min): Hydrolyzed | Conversion (%) ([2]; pH = 2.0, 37° C., 1 min): 100% | Conversion (%) ([2]; pH = 2.0, 37° C., time 0): 0%

COc1ccc([C@@]23CCC(OC(=O)C4CC4)=C[C@@H]2N(C)CC3)cc1OC [Compound 312, [(3aS,7aS)-3a-(3,4-dimethoxyphenyl)-1-methyl-3,4,5,7a-tetrahydro-2H-indol-6-yl]cyclopropanecarboxylate]
Mouse Plasma Prodrug (%) ([3]; 0 min): 100.0% | Mouse Plasma Prodrug (%) ([3]; 15 min): 3.5% | Mouse Plasma Prodrug (%) ([3]; 30 min): 1.6% | Mouse Plasma Prodrug (%) ([3]; 60 min): 2.2% | Mouse Plasma Prodrug (%) ([3]; 120 min): 2.8% | Mouse Plasma Prodrug (%) ([3]; 240 min): 0.8% | Condition 2 Conversion (%) ([4]; time 1 min): 0% | Condition 2 Conversion (%) ([4]; time 5 min): 0% | Condition 2 Conversion (%) ([4]; time 30 min): 0% | Condition 2 Conversion (%) ([4]; time 1 h): 0% | Condition 2 Conversion (%) ([4]; time 4 h): 0% | Condition 2 Conversion (%) ([4]; time 24 h): 0% | Mouse Plasma Compound 001 (%) ([5]; 15 min): 66.1% | Mouse Plasma Compound 001 (%) ([5]; 30 min): 70.8% | Mouse Plasma Compound 001 (%) ([5]; 60 min): 64.4% | Mouse Plasma Compound 001 (%) ([5]; 120 min): 61.7% | Mouse Plasma Compound 001 (%) ([5]; 240 min): 61.5% | Condition 1 Conversion (%) ([1]; time 1 min): 0% | Condition 1 Conversion (%) ([1]; time 5 min): 0% | Condition 1 Conversion (%) ([1]; time 30 min): 0% | Condition 1 Conversion (%) ([1]; time 1 h): 0% | Condition 1 Conversion (%) ([1]; time 4 h): 0% | Condition 1 Conversion (%) ([1]; time 24 h): 0% | Human Plasma Prodrug (%) ([6]; 0 min): 100.0% | Human Plasma Prodrug (%) ([6]; 15 min): 8.1% | Human Plasma Prodrug (%) ([6]; 30 min): 6.2% | Human Plasma Prodrug (%) ([6]; 60 min): 20.9% | Human Plasma Prodrug (%) ([6]; 120 min): 10.5% | Human Plasma Prodrug (%) ([6]; 240 min): 13.8%

C/C=C(\C)C(=O)OC1=C[C@@H]2N(C)CC[C@]2(c2ccc(OC)c(OC)c2)CC1 [Compound 313, [(3aS,7aS)-3a-(3,4-dimethoxyphenyl)-1-methyl-3,4,5,7a-tetrahydro-2H-indol-6-yl](E)-2-methylbut-2-enoate]
Mouse Plasma Prodrug (%) ([3]; 0 min): 100.0% | Mouse Plasma Prodrug (%) ([3]; 15 min): 2.1% | Mouse Plasma Prodrug (%) ([3]; 30 min): 0.7% | Mouse Plasma Prodrug (%) ([3]; 60 min): 0.1% | Mouse Plasma Prodrug (%) ([3]; 120 min): 0.0% | Mouse Plasma Prodrug (%) ([3]; 240 min): 0.0% | Condition 2 Conversion (%) ([4]; time 1 min): 0% | Condition 2 Conversion (%) ([4]; time 5 min): 0% | Condition 2 Conversion (%) ([4]; time 30 min): 0% | Condition 2 Conversion (%) ([4]; time 1 h): 0% | Condition 2 Conversion (%) ([4]; time 4 h): 0% | Condition 2 Conversion (%) ([4]; time 24 h): 0% | Mouse Plasma Compound 001 (%) ([5]; 15 min): 37.2% | Mouse Plasma Compound 001 (%) ([5]; 30 min): 36.3% | Mouse Plasma Compound 001 (%) ([5]; 60 min): 37.1% | Mouse Plasma Compound 001 (%) ([5]; 120 min): 35.2% | Mouse Plasma Compound 001 (%) ([5]; 240 min): 35.0% | Condition 1 Conversion (%) ([1]; time 1 min): 0% | Condition 1 Conversion (%) ([1]; time 5 min): 0% | Condition 1 Conversion (%) ([1]; time 30 min): 0% | Condition 1 Conversion (%) ([1]; time 1 h): 0% | Condition 1 Conversion (%) ([1]; time 4 h): 0% | Condition 1 Conversion (%) ([1]; time 24 h): 0% | Human Plasma Prodrug (%) ([6]; 0 min): 100.0% | Human Plasma Prodrug (%) ([6]; 15 min): 62.2% | Human Plasma Prodrug (%) ([6]; 30 min): 35.1% | Human Plasma Prodrug (%) ([6]; 60 min): 12.8% | Human Plasma Prodrug (%) ([6]; 120 min): 2.4% | Human Plasma Prodrug (%) ([6]; 240 min): 0.4%

C=C(C)C(=O)OC1=C[C@@H]2N(C)CC[C@]2(c2ccc(OC)c(OC)c2)CC1 [Compound 315, [(3aS,7aS)-3a-(3,4-dimethoxyphenyl)-1-methyl-3,4,5,7a-tetrahydro-2H-indol-6-yl]-2-methylprop-2-enoate]
Mouse Plasma Prodrug (%) ([3]; 0 min): 100.0% | Mouse Plasma Prodrug (%) ([3]; 15 min): 5.3% | Mouse Plasma Prodrug (%) ([3]; 30 min): 2.4% | Mouse Plasma Prodrug (%) ([3]; 60 min): 1.3% | Mouse Plasma Prodrug (%) ([3]; 120 min): 2.0% | Mouse Plasma Prodrug (%) ([3]; 240 min): 1.9% | Condition 2 Conversion (%) ([4]; time 1 min): 0% | Condition 2 Conversion (%) ([4]; time 5 min): 0% | Condition 2 Conversion (%) ([4]; time 30 min): 0% | Condition 2 Conversion (%) ([4]; time 1 h): 0% | Condition 2 Conversion (%) ([4]; time 4 h): 0% | Condition 2 Conversion (%) ([4]; time 24 h): 0% | Mouse Plasma Compound 001 (%) ([5]; 15 min): 60.4% | Mouse Plasma Compound 001 (%) ([5]; 30 min): 61.9% | Mouse Plasma Compound 001 (%) ([5]; 120 min): 57.3% | Mouse Plasma Compound 001 (%) ([5]; 240 min): 55.8% | Condition 1 Conversion (%) ([1]; time 1 min): 0% | Condition 1 Conversion (%) ([1]; time 5 min): 0% | Condition 1 Conversion (%) ([1]; time 30 min): 0% | Condition 1 Conversion (%) ([1]; time 1 h): 0% | Condition 1 Conversion (%) ([1]; time 4 h): 0% | Condition 1 Conversion (%) ([1]; time 24 h): 0% | Human Plasma Prodrug (%) ([6]; 0 min): 100.0% | Human Plasma Prodrug (%) ([6]; 15 min): 16.6% | Human Plasma Prodrug (%) ([6]; 30 min): 2.3% | Human Plasma Prodrug (%) ([6]; 60 min): 0.5% | Human Plasma Prodrug (%) ([6]; 120 min): 0.2% | Human Plasma Prodrug (%) ([6]; 240 min): 0.0%

COc1ccc([C@@]23CCC(OC(=O)c4ccc(N(C)C)cc4)=C[C@@H]2N(C)CC3)cc1OC [Compound 355, [(3aS,7aS)-3a-(3,4-dimethoxyphenyl)-1-methyl-3,4,5,7a-tetrahydro-2H-indol-6-yl]4-(dimethylamino)benzoate]
Mouse Plasma Prodrug (%) ([3]; 0 min): 100.0% | Mouse Plasma Prodrug (%) ([3]; 15 min): 50.6% | Mouse Plasma Prodrug (%) ([3]; 30 min): 30.8% | Mouse Plasma Prodrug (%) ([3]; 60 min): 9.9% | Mouse Plasma Prodrug (%) ([3]; 120 min): 0.5% | Mouse Plasma Prodrug (%) ([3]; 240 min): 0.0% | Condition 2 Conversion (%) ([4]; time 1 min): 0% | Condition 2 Conversion (%) ([4]; time 5 min): 0% | Condition 2 Conversion (%) ([4]; time 30 min): 0% | Condition 2 Conversion (%) ([4]; time 1 h): 0% | Condition 2 Conversion (%) ([4]; time 4 h): 0% | Condition 2 Conversion (%) ([4]; time 24 h): 0% | Human Plasma Compound 001 (%) [7]: 0.0% | Condition 1 Conversion (%) ([1]; time 1 min): 0% | Condition 1 Conversion (%) ([1]; time 5 min): 0% | Condition 1 Conversion (%) ([1]; time 30 min): 0% | Condition 1 Conversion (%) ([1]; time 1 h): 0% | Condition 1 Conversion (%) ([1]; time 4 h): 0% | Condition 1 Conversion (%) ([1]; time 24 h): 0% | Human Plasma Prodrug (%) ([6]; 0 min): 100.0% | Human Plasma Prodrug (%) ([6]; 15 min): >99% | Human Plasma Prodrug (%) ([6]; 30 min): >99% | Human Plasma Prodrug (%) ([6]; 60 min): >99% | Human Plasma Prodrug (%) ([6]; 120 min): >99% | Human Plasma Prodrug (%) ([6]; 240 min): 93.2%
